Data from patent publication US8048825B2, “Haloalkylsulfonanilide derivatives or salt thereof, herbicide comprising the derivatives as active ingredient, and use of the herbicide” (Nihon Nohyaku Co., Ltd., priority 2006, dated 2011).

Experiments:
Type in all cases: in vivo
[1] = test system: Scirpus juncoides; assay: Herbicidal effect on paddy field weeds of post-emergence stage (Post), Test Example 2; settings: one-leaf stage, 1000 g/ha as active ingredient, examined after 21 days
Description: (§1) Criteria for herbicidal efficacy (growth inhibiting degree) and phytotoxicity. • 5 . . . 100% herbicidal effect, phytotoxicity. • 4 . . . 90%-99% herbicidal effect, phytotoxicity. • 3 . . . 70%-89% herbicidal effect, phytotoxicity. • 2 . . . 40%-69% herbicidal effect, phytotoxicity. • 1 . . . 1%-39% herbicidal effect, phytotoxicity. • 0 . . . 0% herbicidal effect, phytotoxicity.
(§2) 75 cm^2 plastic pots were filled with the soil (clay loam). Seeds of Scirpus juncoides and Echinochloa crus-galli, paddy weeds, were planted, and they were covered with 75 cm^3 of soil mixed with seeds of Lindernia procumbens and then filled with water depth of 5 cm and they were brought up in a greenhouse. When the test plants were at one-leaf stage, predetermined effective dosage (1000 g/ha as an active ingredient) of formulations comprising a compound of the present invention as an active ingredient was applied to the pot water. Then, they were brought up in a greenhouse and the herbicidal efficacy was examined after 21 days from the treatment by comparing with the result of an untreated group according to the criteria of Test Example 1. In the table, “-” means that the test was not performed.

[2] = test system: Lindernia procumbens; assay: as above; settings: one-leaf stage, 1000 g/ha as active ingredient, examined after 21 days
Description: as §1, §2

[3] = test system: Scirpus juncoides; assay: Herbicidal efficacy on paddy field weeds of pre-emergence stage (Pre), Test Example 1; settings: 1000 g/ha as active ingredient, examined after 21 days
Procedure: (§3) 75 cm^2 plastic pots were filled with the soil (clay loam). Seeds of Scirpus juncoides, a paddy weed, were planted, and they were covered with 75 cm^3 of soil mixed with seeds of Lindernia procumbens and then filled with water depth of 5 cm. Next day, predetermined effective dosage (1000 g/ha as an active ingredient) of formulations comprising a compound of the present invention as an active ingredient which were prepared following Formulation Examples 1 to 4 was diluted with water and applied dropwise to the surface of the water. Then, they were brought up in a greenhouse and the herbicidal effect was examined after 21 days from the treatment by comparing with the result of an untreated group according to the following criteria. In the table, “-” means that the test was not performed.
as §1

[4] = test system: Lindernia procumbens; assay: as above; settings: 1000 g/ha as active ingredient, examined after 21 days
Procedure: as §3, §1

CCOC(=O)N(c1ccccc1CN1CCC(c2ccccc2F)OC1=O)S(=O)(=O)C(F)(F)F (stereo not drawn) [Compound 1-252]
Scirpus juncoides post (herbicidal effect) [1]: 4 (90%-99% herbicidal effect, phytotoxicity)
Lindernia procumbens post (herbicidal effect) [2]: 5 (100% herbicidal effect, phytotoxicity)
Scirpus juncoides pre (herbicidal effect) [3]: 4 (90%-99% herbicidal effect, phytotoxicity)
Lindernia procumbens pre (herbicidal effect) [4]: 5 (100% herbicidal effect, phytotoxicity)

CCCCOC(=O)N(c1ccccc1CN1CCC(CC)(C(F)(F)F)OC1=O)S(=O)(=O)C(F)(F)F (stereo not drawn) [Compound 1-95]
Scirpus juncoides post (herbicidal effect) [1]: 4 (90%-99% herbicidal effect, phytotoxicity)
Lindernia procumbens post (herbicidal effect) [2]: 5 (100% herbicidal effect, phytotoxicity)
Scirpus juncoides pre (herbicidal effect) [3]: 5 (100% herbicidal effect, phytotoxicity)
Lindernia procumbens pre (herbicidal effect) [4]: 5 (100% herbicidal effect, phytotoxicity)

CCCCC(CC)COC(=O)N(c1ccccc1CN1CCC2(CCCC2)OC1=O)S(=O)(=O)C(F)(F)F (stereo not drawn) [Compound 1-144]
Scirpus juncoides post (herbicidal effect) [1]: 4 (90%-99% herbicidal effect, phytotoxicity)
Lindernia procumbens post (herbicidal effect) [2]: 4 (90%-99% herbicidal effect, phytotoxicity)
Scirpus juncoides pre (herbicidal effect) [3]: 4 (90%-99% herbicidal effect, phytotoxicity)
Lindernia procumbens pre (herbicidal effect) [4]: 4 (90%-99% herbicidal effect, phytotoxicity)

CCC1(CC)CCN(Cc2ccccc2N(C(=O)OCC(C)(C)C)S(=O)(=O)C(F)(F)F)C(=O)O1 [Compound 1-108]
Scirpus juncoides post (herbicidal effect) [1]: 4 (90%-99% herbicidal effect, phytotoxicity)
Lindernia procumbens post (herbicidal effect) [2]: 4 (90%-99% herbicidal effect, phytotoxicity)
Scirpus juncoides pre (herbicidal effect) [3]: 4 (90%-99% herbicidal effect, phytotoxicity)
Lindernia procumbens pre (herbicidal effect) [4]: 4 (90%-99% herbicidal effect, phytotoxicity)

CCOC(=O)N(c1ccccc1CN1CCC(c2ccccc2Cl)OC1=O)S(=O)(=O)C(F)(F)F (stereo not drawn) [Compound 1-307]
Scirpus juncoides post (herbicidal effect) [1]: 4 (90%-99% herbicidal effect, phytotoxicity)
Lindernia procumbens post (herbicidal effect) [2]: 5 (100% herbicidal effect, phytotoxicity)
Scirpus juncoides pre (herbicidal effect) [3]: 4 (90%-99% herbicidal effect, phytotoxicity)
Lindernia procumbens pre (herbicidal effect) [4]: 5 (100% herbicidal effect, phytotoxicity)

O=C1OC(c2ccccc2Cl)CCN1Cc1ccccc1NS(=O)(=O)C(F)(F)F (stereo not drawn) [Compound 1-305]
Scirpus juncoides post (herbicidal effect) [1]: 4 (90%-99% herbicidal effect, phytotoxicity)
Lindernia procumbens post (herbicidal effect) [2]: 5 (100% herbicidal effect, phytotoxicity)
Scirpus juncoides pre (herbicidal effect) [3]: 4 (90%-99% herbicidal effect, phytotoxicity)
Lindernia procumbens pre (herbicidal effect) [4]: 5 (100% herbicidal effect, phytotoxicity)

O=C1OC(c2ccccc2F)CCN1Cc1ccccc1NS(=O)(=O)C(F)(F)F (stereo not drawn) [Compound 1-250]
Scirpus juncoides post (herbicidal effect) [1]: 5 (100% herbicidal effect, phytotoxicity)
Lindernia procumbens post (herbicidal effect) [2]: 5 (100% herbicidal effect, phytotoxicity)
Scirpus juncoides pre (herbicidal effect) [3]: 5 (100% herbicidal effect, phytotoxicity)
Lindernia procumbens pre (herbicidal effect) [4]: 5 (100% herbicidal effect, phytotoxicity)

CC1(Cc2ccccc2F)CCN(Cc2ccccc2NS(=O)(=O)C(F)(F)F)C(=O)O1 (racemic) [Compound 1-461]
Scirpus juncoides post (herbicidal effect) [1]: 4 (90%-99% herbicidal effect, phytotoxicity)
Lindernia procumbens post (herbicidal effect) [2]: 5 (100% herbicidal effect, phytotoxicity)
Scirpus juncoides pre (herbicidal effect) [3]: 5 (100% herbicidal effect, phytotoxicity)
Lindernia procumbens pre (herbicidal effect) [4]: 5 (100% herbicidal effect, phytotoxicity)

CCC1(CC(C)C)CCN(Cc2ccccc2N(C(=O)OCC(C)(C)C)S(=O)(=O)C(F)(F)F)C(=O)O1 (racemic) [Compound 1-423]
Scirpus juncoides post (herbicidal effect) [1]: 4 (90%-99% herbicidal effect, phytotoxicity)
Lindernia procumbens post (herbicidal effect) [2]: 5 (100% herbicidal effect, phytotoxicity)
Scirpus juncoides pre (herbicidal effect) [3]: 4 (90%-99% herbicidal effect, phytotoxicity)
Lindernia procumbens pre (herbicidal effect) [4]: 5 (100% herbicidal effect, phytotoxicity)

CC1(c2ccccc2F)CCN(Cc2ccccc2NS(=O)(=O)C(F)(F)F)C(=O)O1 (racemic) [Compound 1-428]
Scirpus juncoides post (herbicidal effect) [1]: 4 (90%-99% herbicidal effect, phytotoxicity)
Lindernia procumbens post (herbicidal effect) [2]: 5 (100% herbicidal effect, phytotoxicity)
Scirpus juncoides pre (herbicidal effect) [3]: 5 (100% herbicidal effect, phytotoxicity)
Lindernia procumbens pre (herbicidal effect) [4]: 5 (100% herbicidal effect, phytotoxicity)

Cc1cccc(C)c1C1CCN(Cc2ccccc2NS(=O)(=O)C(F)(F)F)C(=O)O1 (stereo not drawn) [Compound 1-360]
Scirpus juncoides post (herbicidal effect) [1]: 4 (90%-99% herbicidal effect, phytotoxicity)
Lindernia procumbens post (herbicidal effect) [2]: 5 (100% herbicidal effect, phytotoxicity)
Scirpus juncoides pre (herbicidal effect) [3]: 5 (100% herbicidal effect, phytotoxicity)
Lindernia procumbens pre (herbicidal effect) [4]: 5 (100% herbicidal effect, phytotoxicity)

O=C1OC(C(F)(F)F)(C(F)(F)F)CCN1Cc1ccccc1NS(=O)(=O)C(F)(F)F [Compound 1-338]
Scirpus juncoides post (herbicidal effect) [1]: 4 (90%-99% herbicidal effect, phytotoxicity)
Lindernia procumbens post (herbicidal effect) [2]: 5 (100% herbicidal effect, phytotoxicity)
Scirpus juncoides pre (herbicidal effect) [3]: 4 (90%-99% herbicidal effect, phytotoxicity)
Lindernia procumbens pre (herbicidal effect) [4]: 4 (90%-99% herbicidal effect, phytotoxicity)

CCC1(C(C)C)CCN(Cc2ccccc2N(C(=O)OCC(C)(C)C)S(=O)(=O)C(F)(F)F)C(=O)O1 (racemic) [Compound 1-456]
Scirpus juncoides post (herbicidal effect) [1]: 4 (90%-99% herbicidal effect, phytotoxicity)
Lindernia procumbens post (herbicidal effect) [2]: 5 (100% herbicidal effect, phytotoxicity)
Scirpus juncoides pre (herbicidal effect) [3]: 5 (100% herbicidal effect, phytotoxicity)
Lindernia procumbens pre (herbicidal effect) [4]: 5 (100% herbicidal effect, phytotoxicity)

CCOC(=O)N(c1ccccc1CN1CCC(C)(c2ccccc2Cl)OC1=O)S(=O)(=O)C(F)(F)F (stereo not drawn) [Compound 1-174]
Scirpus juncoides post (herbicidal effect) [1]: 4 (90%-99% herbicidal effect, phytotoxicity)
Lindernia procumbens post (herbicidal effect) [2]: 4 (90%-99% herbicidal effect, phytotoxicity)
Scirpus juncoides pre (herbicidal effect) [3]: 4 (90%-99% herbicidal effect, phytotoxicity)
Lindernia procumbens pre (herbicidal effect) [4]: 4 (90%-99% herbicidal effect, phytotoxicity)

CCC1(CC(C)C)CCN(Cc2ccccc2N(C(=O)OCC(C)C)S(=O)(=O)C(F)(F)F)C(=O)O1 (stereo not drawn) [Compound 1-422]
Scirpus juncoides post (herbicidal effect) [1]: 4 (90%-99% herbicidal effect, phytotoxicity)
Lindernia procumbens post (herbicidal effect) [2]: 5 (100% herbicidal effect, phytotoxicity)
Scirpus juncoides pre (herbicidal effect) [3]: 5 (100% herbicidal effect, phytotoxicity)
Lindernia procumbens pre (herbicidal effect) [4]: 5 (100% herbicidal effect, phytotoxicity)

CCCOC(=O)N(c1ccccc1CN1CCC(CC)(C(F)(F)F)OC1=O)S(=O)(=O)C(F)(F)F (stereo not drawn) [Compound 1-94]
Scirpus juncoides post (herbicidal effect) [1]: 4 (90%-99% herbicidal effect, phytotoxicity)
Lindernia procumbens post (herbicidal effect) [2]: 5 (100% herbicidal effect, phytotoxicity)
Scirpus juncoides pre (herbicidal effect) [3]: 5 (100% herbicidal effect, phytotoxicity)
Lindernia procumbens pre (herbicidal effect) [4]: 5 (100% herbicidal effect, phytotoxicity)

CCOC(=O)N(c1ccccc1CN1CCC(c2c(F)cccc2F)OC1=O)S(=O)(=O)C(F)(F)F (stereo not drawn) [Compound 1-351]
Scirpus juncoides post (herbicidal effect) [1]: 4 (90%-99% herbicidal effect, phytotoxicity)
Lindernia procumbens post (herbicidal effect) [2]: 5 (100% herbicidal effect, phytotoxicity)
Scirpus juncoides pre (herbicidal effect) [3]: 4 (90%-99% herbicidal effect, phytotoxicity)
Lindernia procumbens pre (herbicidal effect) [4]: 5 (100% herbicidal effect, phytotoxicity)

CCC1(CC)CCN(Cc2ccccc2N(C(=O)OCC(C)C)S(=O)(=O)C(F)(F)F)C(=S)O1 [Compound 1-119]
Scirpus juncoides post (herbicidal effect) [1]: 4 (90%-99% herbicidal effect, phytotoxicity)
Lindernia procumbens post (herbicidal effect) [2]: 4 (90%-99% herbicidal effect, phytotoxicity)
Scirpus juncoides pre (herbicidal effect) [3]: 4 (90%-99% herbicidal effect, phytotoxicity)
Lindernia procumbens pre (herbicidal effect) [4]: 4 (90%-99% herbicidal effect, phytotoxicity)

CCOC(=O)N(c1ccccc1CN1CCC(c2ccccc2)(c2ccccc2)OC1=O)S(=O)(=O)C(F)(F)F [Compound 1-219]
Scirpus juncoides post (herbicidal effect) [1]: 4 (90%-99% herbicidal effect, phytotoxicity)
Lindernia procumbens post (herbicidal effect) [2]: 4 (90%-99% herbicidal effect, phytotoxicity)
Scirpus juncoides pre (herbicidal effect) [3]: 4 (90%-99% herbicidal effect, phytotoxicity)
Lindernia procumbens pre (herbicidal effect) [4]: 4 (90%-99% herbicidal effect, phytotoxicity)

CC1(c2ccccc2Cl)CCN(Cc2ccccc2NS(=O)(=O)C(F)(F)F)C(=O)O1 (stereo not drawn) [Compound 1-172]
Scirpus juncoides post (herbicidal effect) [1]: 4 (90%-99% herbicidal effect, phytotoxicity)
Lindernia procumbens post (herbicidal effect) [2]: 4 (90%-99% herbicidal effect, phytotoxicity)
Scirpus juncoides pre (herbicidal effect) [3]: 4 (90%-99% herbicidal effect, phytotoxicity)
Lindernia procumbens pre (herbicidal effect) [4]: 4 (90%-99% herbicidal effect, phytotoxicity)

CC1(c2ccccc2)CCN(Cc2ccccc2NS(=O)(=O)C(F)(F)F)C(=O)O1 (stereo not drawn) [Compound 1-160]
Scirpus juncoides post (herbicidal effect) [1]: 4 (90%-99% herbicidal effect, phytotoxicity)
Lindernia procumbens post (herbicidal effect) [2]: 4 (90%-99% herbicidal effect, phytotoxicity)
Scirpus juncoides pre (herbicidal effect) [3]: 4 (90%-99% herbicidal effect, phytotoxicity)
Lindernia procumbens pre (herbicidal effect) [4]: 4 (90%-99% herbicidal effect, phytotoxicity)
